In data set [1] the target is T1, DusC (Escherichia coli, UniProt P33371).
T1 construct: expression construct, tags and host not described
T1 sequence (P33371 1-315): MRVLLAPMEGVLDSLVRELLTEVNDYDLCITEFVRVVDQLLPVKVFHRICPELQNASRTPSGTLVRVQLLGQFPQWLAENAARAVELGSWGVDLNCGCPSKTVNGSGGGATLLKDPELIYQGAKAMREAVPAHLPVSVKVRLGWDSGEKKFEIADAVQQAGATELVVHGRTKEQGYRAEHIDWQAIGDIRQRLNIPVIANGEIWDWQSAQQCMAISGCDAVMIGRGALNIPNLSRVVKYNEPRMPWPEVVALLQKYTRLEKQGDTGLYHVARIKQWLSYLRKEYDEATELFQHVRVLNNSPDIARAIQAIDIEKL
Kind of data set: flavin bound to the purified protein. Type of data set: binding. Conditions: non-covalent; flavin named FMN elsewhere in the paper.

Data set [2] concerns the target T2, DusA (Escherichia coli, UniProt P32695).
T2 construct: expression construct, tags and host not described
T2 sequence (P32695 1-345): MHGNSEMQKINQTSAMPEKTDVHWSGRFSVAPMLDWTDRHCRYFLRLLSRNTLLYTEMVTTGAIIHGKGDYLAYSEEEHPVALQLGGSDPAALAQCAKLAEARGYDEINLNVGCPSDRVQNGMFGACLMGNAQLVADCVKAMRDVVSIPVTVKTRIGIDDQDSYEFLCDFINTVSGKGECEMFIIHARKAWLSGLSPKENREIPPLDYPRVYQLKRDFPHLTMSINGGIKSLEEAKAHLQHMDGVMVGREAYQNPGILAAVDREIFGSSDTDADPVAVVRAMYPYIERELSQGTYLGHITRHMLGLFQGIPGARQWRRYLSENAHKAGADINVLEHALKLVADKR
Kind of data set: flavin bound to the purified protein. In kind it is binding. The conditions noted are these: non-covalent; flavin named FMN elsewhere in the paper.

Data set [3] deals with T3, DusB (Escherichia coli, UniProt P0ABT5).
T3 construct: expression construct, tags and host not described
T3 sequence (P0ABT5 1-321): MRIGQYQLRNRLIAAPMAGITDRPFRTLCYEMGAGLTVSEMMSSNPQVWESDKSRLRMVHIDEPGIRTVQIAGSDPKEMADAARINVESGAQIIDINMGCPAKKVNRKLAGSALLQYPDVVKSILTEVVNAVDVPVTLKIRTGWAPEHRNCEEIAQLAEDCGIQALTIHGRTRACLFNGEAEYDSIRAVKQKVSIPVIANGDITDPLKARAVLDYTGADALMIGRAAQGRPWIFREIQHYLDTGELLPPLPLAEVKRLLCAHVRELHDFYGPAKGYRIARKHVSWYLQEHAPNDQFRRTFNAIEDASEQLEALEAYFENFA
Kind of data set: flavin bound to the purified protein. Type of data set: binding. Conditions: non-covalent; flavin named FMN elsewhere in the paper.

Substrate in data set [4]: NC(=O)C1=CN([C@@H]2O[C@H](COP(=O)(O)OP(=O)(O)OC[C@H]3O[C@@H](n4cnc5c(N)ncnc54)[C@H](OP(=O)(O)O)[C@@H]3O)[C@@H](O)[C@H]2O)C=CC1
Kind of data set: NADPH oxidase, spectrophotometric, steady state. In kind it is biochemical, Escherichia coli. The conditions noted are these: air (O2) as final electron acceptor, 50 mM HEPES pH 7.5, 150 mM NaCl, 15% glycerol, no tRNA.

Consider two molecules from publication PMC11602153, “Differential redox sensitivity of tRNA dihydrouridylation” (Nucleic Acids Research, 2024).

`Cc1cc2nc3c(=O)[nH]c(=O)nc-3n(C[C@H](O)[C@H](O)[C@H](O)COP(=O)(O)O)c2cc1C` [FMN]: the “flavin bound to the purified protein” value is reported as “exhibited non-covalently bound flavin, associated with the apoproteins” in data set [1]; “exhibited non-covalently bound flavin, associated with the apoproteins” in data set [2]; “exhibited non-covalently bound flavin, associated with the apoproteins” in data set [3].

B1: DusA (Escherichia coli K-12) (protein)
chain: MHGNSEMQKINQTSAMPEKTDVHWSGRFSVAPMLDWTDRHCRYFLRLLSRNTLLYTEMVTTGAIIHGKGDYLAYSEEEHPVALQLGGSDPAALAQCAKLAEARGYDEINLNVGCPSDRVQNGMFGACLMGNAQLVADCVKAMRDVVSIPVTVKTRIGIDDQDSYEFLCDFINTVSGKGECEMFIIHARKAWLSGLSPKENREIPPLDYPRVYQLKRDFPHLTMSINGGIKSLEEAKAHLQHMDGVMVGREAYQNPGILAAVDREIFGSSDTDADPVAVVRAMYPYIERELSQGTYLGHITRHMLGLFQGIPGARQWRRYLSENAHKAGADINVLEHALKLVADKR
notes: expression construct, tags and host not described
For B1, in data set [4], the Km was 17 ± 3 µM and the kcat worked out at 0.48 ± 0.072 s⁻¹.

What is called Km is the substrate concentration at which the rate is half of its maximum. Broadly, the kcat is the number of substrate molecules converted per active site and unit of time at saturation.
